Reference: paper PMC8304462, “Isolation, Structural Characterization and Antidiabetic Activity of New Diketopiperazine Alkaloids from Mangrove Endophytic Fungus Aspergillus sp. 16-5c” (Marine Drugs, 2021)

Key:
α-glucosidase = α-glucosidase inhibition assay (p-NPG, 96-well microplate); assay type: biochemical; settings: 37 °C, pH 6.86, substrate p-NPG
Description: The α-glucosidase inhibition assay was performed in a 96-well microplate reader method as described in a previous report. The α-glucosidase assay was performed at 37 °C with a final volume of 200 μL. […] 20 μL substrate p-nitrophenyl-α-D-glucopyranoside (p-NPG) was added to each well to start the reaction. The reaction was incubated at 37 °C for 15 min and stopped by the addition of 50 μL 0.4 M Na2CO3.

PTP1B = target: T1, PTP1B (Homo sapiens, UniProt P18031); experiment: PTP1B inhibitory activity (p-NPP hydrolysis); assay type: biochemical; settings: screening concentration 100 μg/mL
T1 sequence (P18031 1-435): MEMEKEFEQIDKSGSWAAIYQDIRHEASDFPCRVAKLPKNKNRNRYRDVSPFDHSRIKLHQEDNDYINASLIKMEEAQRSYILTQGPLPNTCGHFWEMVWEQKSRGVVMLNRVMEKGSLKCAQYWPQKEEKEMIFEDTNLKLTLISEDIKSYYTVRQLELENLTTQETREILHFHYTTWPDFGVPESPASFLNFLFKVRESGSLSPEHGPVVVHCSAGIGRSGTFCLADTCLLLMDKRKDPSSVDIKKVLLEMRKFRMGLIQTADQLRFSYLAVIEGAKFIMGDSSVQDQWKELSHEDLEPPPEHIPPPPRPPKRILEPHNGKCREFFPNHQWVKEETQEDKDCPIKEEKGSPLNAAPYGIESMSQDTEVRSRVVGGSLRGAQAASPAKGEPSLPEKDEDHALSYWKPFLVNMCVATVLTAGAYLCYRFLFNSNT
Description: PTP1B inhibitory activity was determined by measuring the enzymatic hydrolysis rate of p-nitrophenyl phosphate (p-NPP) as reported in the study. This assay was performed at 37 °C with a final volume of 100 μL, using a Tris-HCl buffer (25 mM Tris-HCl, 1 mM EDTA, 1 mM DTT, pH 7.5). […] After 30 min, the reaction ended by adding 50 μL 2.5 M NaOH solution.

Row | SMILES | IC50 (α-glucosidase) [µM] | PTP1B (Inhibition Ratio/%) (PTP1B) [%]
1 | C=CC(C)(C)c1[nH]c2ccccc2c1C(OC)C1NC(=O)C2CCCN2C1=O (centres unmarked) [Compound 5, aspergiamide E] | 1090 | <10
2 | C=CC(C)(C)c1[nH]c2ccccc2c1/C=C1\NC(=O)C2(O)CCCN2C1=O (centres unmarked) [Compound 7, brevianamide Q] | 198 | <10
3 | C=CC(C)(C)c1[nH]c2ccccc2c1/C=C1\NC(=O)C2(OC)CCCN2C1=O (centres unmarked) [Compound 8, brevianamide R] | 364 | <10
4 | C=CC(C)(C)c1[nH]c2ccccc2c1/C=c1\[nH]c(=O)c2n(c1=O)CCC=2 [Compound 9, brevianamide K] | 7.6 | <10
5 | CC(C)=CCn1cc(CC2NC(=O)C3CCCN3C2=O)c2ccccc21 [Compound 11, N-Prenyl-cyclo-L-tryptophyl-L-proline] | 37.5 | <10
6 | O=C1N[C@@H](Cc2c[nH]c3ccccc23)C(=O)N2CCC[C@@H]12 [Compound 12, brevianamide F] | 1090 | <10
7 | O=C1N[C@@H](Cc2c[nH]c3ccccc23)C(=O)N[C@H]1Cc1ccccc1 [Compound 14, cyclo-(tryptophyl-phenylalanyl)] | 353 | <10

Further compounds by falling IC50 (α-glucosidase), results first:

Row | IC50 (α-glucosidase) [µM] | PTP1B (Inhibition Ratio/%) (PTP1B) [%] | SMILES
8 | 480 | <10 | C=CC(C)(C)c1[nH]c2ccccc2c1CC1NC(=O)C2CCCN2C1=O (stereo not drawn) [Compound 13, epi-deoxybrevianamide E]
9 | 363 | <10 | O=C1NC(=O)[C@H](Cc2ccccc2)n2c1nc1ccccc1c2=O [Compound 16, brevianamide N]
10 | 267 | <10 | O=C1NC(O)c2nc3ccccc3c(=O)n2C1Cc1ccc(O)cc1 (centres unmarked) [Compound 6, aspergiamide F]
11 | 144 | <10 | C=CC(C)(C)c1[nH]c2ccccc2c1C(O)C1NC(=O)C2CCCN2C1=O (centres unmarked) [Compound 4, aspergiamide D]
12 | 131 | <10 | C=CC(C)(C)c1[nH]c2ccccc2c1C=C1NC(=O)C(CCC(=O)O)NC1=O (centres unmarked) [Compound 2, aspergiamide B]
13 | 83.9 | <10 | C=CC(C)(C)c1[nH]c2ccccc2c1C=C1NC(=O)C2CC(O)CN2C1=O (centres unmarked) [Compound 3, aspergiamide C]
14 | 67.8 | <10 | O=C1N[C@@H](O)c2nc3ccccc3c(=O)n2[C@H]1Cc1ccccc1 [Compound 15, brevianamide M]
15 | 40.7 | <10 | C=CC(C)(C)c1[nH]c2ccccc2c1/C=C1\NC(=O)C2CCCN2C1=O (centres unmarked) [Compound 10, brevianamide W]
16 | 18.2 | 29 | C=CC(C)(C)c1[nH]c2ccccc2c1C=C1NC(=O)C(CCCO)NC1=O (centres unmarked) [Compound 1, aspergiamide A]
